Several values for one entry are separate records, joined by “and”; a condition that tells them apart may be missing. Equal entries are not always repeated.
What was measured:
[1] = Tafel extrapolation (potentiodynamic polarization) of carbon steel in 1M HCl
Text: (§1) Corrosion inhibition efficiency (IE % or r %) is a measure of the efficiency of an inhibitor to effectively decrease a corrosion rate. Corrosion inhibition efficiency may be measured with the Tafel extrapolation of potentiodynamic polarization (PDP).
(§2) To investigate the effect of Inhibitor 1 on corrosion mechanisms, electrochemical measurements were obtained using Tafel and A.C. impedance experiments. FIGS. 1 and 2 show Tafel and AC impedance curves of carbon steel after adding 50 to 200 ppm of Inhibitor 1 to 1M HCl solution.
(§3) The Tafel extrapolation method was used to fit the curves and obtain corrosion parameters. […] The lowest reported current density at 200 ppm concentration was 4.5 μA·cm^−2, […] than 155 μA·cm^−2 recorded for blank 1M HCl. […] The charge transfer resistance reached the maximum of 1430 Ω·cm^2 at 200 ppm and Inhibitor 1 yielded around 93% efficiency after enhancing it from 116 Ω·cm^2 for the blank solution. Inhibitor 1 is a highly efficient corrosion inhibitor even at low concentrations; at concentrations of 50 ppm and 75 ppm, it yielded an 82% and 90% efficiency, respectively.

[2] = AC impedance of carbon steel in 1M HCl; details: 200 ppm inhibitor
Text: as §2, §3

[3] = Tafel extrapolation of C-steel in 5M HCl, three-electrode cell
Description: as §1
(§4) Electrochemical experiments were carried out using the three-electrode cell assembly (FIG. 4). Tafel and AC impedance measurements were obtained to elucidate the corrosion mechanisms and understand the interactions at the solution-surface interface. The effect of adding 10 to 200 ppm Inhibitor 2 on the C-steel corrosion in 5M HCl solution was determined by AC impedance and Tafel curves (FIG. 5 and FIG. 6).
(§5) Furthermore, electrochemical parameters describing the kinetics of the corrosion process were acquired following the Tafel extrapolation method to fit the curves of FIG. 6. […] Inhibitor 2 successfully achieved 95% efficiency in the highly corrosive condition of 5M HCl at a tolerable quantity of only 200 ppm concentration.

[4] = AC impedance of C-steel in 5M HCl, three-electrode cell; set-up: unit not given here; details: 200 ppm inhibitor
Description: as §4, §5

Question: With O=C(NCCCN1CCN(CCCNC(=O)Nc2ccc([N+](=O)[O-])cc2)CC1)Nc1ccc([N+](=O)[O-])cc1 [Inhibitor 1] as the compound, how does the “% Inhibition Efficiency” value ([1]; 50 ppm inhibitor) read?
Answer: Its value is 82%.

Question: What about the Corrosion rate ([1]; 50 ppm inhibitor) of the same compound?
Answer: The Corrosion rate was 13 mils · year^−1.

Question: What about the Current density ([1]; 50 ppm inhibitor) of the same compound?
Answer: Its Current density is 29 μA · cm^−2.

Question: And the “% Inhibition Efficiency” value ([1]; 75 ppm inhibitor)?
Answer: The value was 90%.

Question: And the Corrosion rate ([1]; 75 ppm inhibitor)?
Answer: Its Corrosion rate is 6.8 mils · year^−1.

Question: What about the Current density ([1]; 75 ppm inhibitor) of the same compound?
Answer: The Current density was 15 μA · cm^−2.

Question: And the “% Inhibition Efficiency” value ([1]; 100 ppm inhibitor)?
Answer: The value was 92%.

Question: And the Corrosion rate ([1]; 100 ppm inhibitor)?
Answer: Its Corrosion rate is 5.5 mils · year^−1.

Question: What about the Current density ([1]; 100 ppm inhibitor) of the same compound?
Answer: The Current density was 12 μA · cm^−2.

Question: And the “% Inhibition Efficiency” value ([1]; 200 ppm inhibitor)?
Answer: The value was 97%.

Question: And the Corrosion rate ([1]; 200 ppm inhibitor)?
Answer: The Corrosion rate was 2 mils · year^−1 and 2.0 mils · year^−1.

Question: And the Current density ([1]; 200 ppm inhibitor)?
Answer: The Current density was 4.5 μA · cm^−2.

Question: And the Charge transfer resistance [2]?
Answer: Its Charge transfer resistance is 1430 Ω·cm^2.

Question: What about the “Efficiency from charge transfer resistance (AC impedance)” value [2] of the same compound?
Answer: The value was “around 93%”.

Question: And the Corrosion rate ([3]; 10 ppm inhibitor)?
Answer: Its Corrosion rate is 360 mils · year^−1.

Question: And the Current density ([3]; 10 ppm inhibitor)?
Answer: Its Current density is 787 μA · cm^−2.

Question: And the “Inhibition Efficiency %” value ([3]; 10 ppm inhibitor)?
Answer: The value was 57%.

Question: What about the Corrosion rate ([3]; 50 ppm inhibitor) of the same compound?
Answer: Its Corrosion rate is 196 mils · year^−1.

Question: And the Current density ([3]; 50 ppm inhibitor)?
Answer: The Current density was 429 μA · cm^−2.

Question: And the “Inhibition Efficiency %” value ([3]; 50 ppm inhibitor)?
Answer: The value was 77%.

Question: And the Corrosion rate ([3]; 100 ppm inhibitor)?
Answer: Its Corrosion rate is 96 mils · year^−1.

Question: And the Current density ([3]; 100 ppm inhibitor)?
Answer: Its Current density is 209 μA · cm^−2.

Question: What about the “Inhibition Efficiency %” value ([3]; 100 ppm inhibitor) of the same compound?
Answer: Its value is 89%.

Question: What about the Corrosion rate ([3]; 200 ppm inhibitor) of the same compound?
Answer: Its Corrosion rate is 46 mils · year^−1.

Question: And the Current density ([3]; 200 ppm inhibitor)?
Answer: Its Current density is 100 μA · cm^−2.

Question: What about the “Inhibition Efficiency %” value ([3]; 200 ppm inhibitor) of the same compound?
Answer: The value was 95%.

Question: What about the “Reduction of current density versus 5M HCl blank” value ([3]; 200 ppm inhibitor) of the same compound?
Answer: Its value is “about 18.5 fold”.

Question: What does the source list for O=[N+]([O-])c1ccc(NC(=S)NCCCN2CCN(CCCNC(=S)Nc3ccc([N+](=O)[O-])cc3)CC2)cc1 [Inhibitor 2]?
Answer: Corrosion rate ([3]; 200 ppm inhibitor): 46 mils · year^−1; Inhibition Efficiency % ([3]; 200 ppm inhibitor): 95%; Charge transfer resistance (RCT) [4]: 83.4
